Experimental data published in patent US12559487B2, “Crosslinked optically active secondary amine derivative” (Sumitomo Pharma Co., Ltd., priority 2019, dated 2026).
Read-outs that look alike come from different tables or passages of the source.

What was measured:
MV4; 11 cells = assay: Test 1: Test for evaluating the inhibition of cell proliferation; type: cell-based; conditions: for IC50: cultured for 7 days, PrestoBlue cell viability
Description: MV4; 11 cells were obtained from American Type Culture Collection (ATCC). The cells were cultured at 37° C. in the presence of 5% CO2 in RPMI 1640 medium containing 10% fetal bovine serum and 1% penicillin/streptomycin.
The cells were plated to a 96-well plate in 2000 cells/well, each test compound was added thereto to adjust the final concentration of DMSO to 0.1% of DMSO, and the cells were cultured for 7 days. After the cultivation, the cell viability was calculated with PrestoBlue™ Cell Viability Reagent (Invitrogen, A13261).

[1] = target: T1, hERG (human Ether-a-go-go Related Gene) (Homo sapiens (Human), UniProt Q12809); assay: Test 2: Test for the hERG inhibition (QPatch HT, CHO cell strain stably expressing hERG); conditions: for hERG/MV4; 11: hERG IC50 divided by MV4, 11 proliferation IC50; for gap between concentration inhibiting 50% of MV4; 11 proliferation and concentration inhibiting 50% of hERG current: hERG IC50 vs MV4, 11 IC50; for IC50: CHO cells stably expressing hERG, QPatch HT
T1 sequence (Q12809 whole entry): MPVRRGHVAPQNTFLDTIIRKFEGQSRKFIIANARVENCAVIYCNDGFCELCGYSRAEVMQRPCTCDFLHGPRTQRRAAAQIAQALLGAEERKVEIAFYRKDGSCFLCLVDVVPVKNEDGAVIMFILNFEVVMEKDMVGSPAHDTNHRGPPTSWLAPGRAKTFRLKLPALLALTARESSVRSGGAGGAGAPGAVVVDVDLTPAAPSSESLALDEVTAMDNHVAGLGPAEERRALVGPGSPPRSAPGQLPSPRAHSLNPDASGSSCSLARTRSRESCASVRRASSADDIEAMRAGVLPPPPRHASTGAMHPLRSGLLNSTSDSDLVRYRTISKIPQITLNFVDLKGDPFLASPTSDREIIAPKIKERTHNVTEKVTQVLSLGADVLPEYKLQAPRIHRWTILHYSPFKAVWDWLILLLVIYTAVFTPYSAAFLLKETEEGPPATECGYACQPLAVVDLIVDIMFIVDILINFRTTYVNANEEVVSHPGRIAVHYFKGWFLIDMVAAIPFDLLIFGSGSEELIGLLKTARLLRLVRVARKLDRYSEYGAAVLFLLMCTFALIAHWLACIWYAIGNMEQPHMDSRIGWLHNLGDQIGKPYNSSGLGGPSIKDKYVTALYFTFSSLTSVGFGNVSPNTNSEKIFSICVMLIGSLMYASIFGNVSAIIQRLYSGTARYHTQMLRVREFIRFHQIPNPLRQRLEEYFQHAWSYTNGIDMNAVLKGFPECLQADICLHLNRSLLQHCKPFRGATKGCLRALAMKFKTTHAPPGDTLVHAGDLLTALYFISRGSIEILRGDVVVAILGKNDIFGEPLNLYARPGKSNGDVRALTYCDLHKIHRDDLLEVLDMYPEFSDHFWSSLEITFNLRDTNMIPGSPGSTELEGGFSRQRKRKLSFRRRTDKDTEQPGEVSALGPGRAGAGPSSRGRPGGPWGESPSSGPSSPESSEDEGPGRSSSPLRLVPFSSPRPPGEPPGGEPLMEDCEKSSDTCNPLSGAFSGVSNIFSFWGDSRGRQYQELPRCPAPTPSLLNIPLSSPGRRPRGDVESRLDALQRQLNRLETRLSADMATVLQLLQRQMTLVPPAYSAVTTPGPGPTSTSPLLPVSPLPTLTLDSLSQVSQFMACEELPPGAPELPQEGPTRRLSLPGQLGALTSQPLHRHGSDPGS

[2] = target: T1, hERG (human Ether-a-go-go Related Gene)
[3] = read-out: hERG IC50, hERG current

Compound: 5-fluoro-2-(3-{8-[(1S,3S,4R)-5-methylidene-2-azabicyclo[2.2.2]octane-3-carbonyl]-8-azabicyclo[3.2.1]octan-3-yl}-1H-pyrrolo[2,3-c]pyridin-1-yl)-N,N-di(propan-2-yl)benzamide [Example 23]
- IC50 (MV4; 11 cells): 280 nM

Compound: CC(C)N(C)C(=O)c1cc(F)ccc1-n1cc(C2CCCN(C(=O)[C@H]3N[C@@H]4CC[C@H]3C4)CC2)c2ccncc21 (stereo partly drawn) [Example 10, 2-(3-{1-[(1R,3S,4S)-2-azabicyclo[2.2.1]heptane-3-carbonyl]azepan-4-yl}-1H-pyrrolo[2,3-c]pyridin-1-yl)-5-fluoro-N-methyl-N-(propan-2-yl)benzamide]
- hERG/MV4; 11 [1]: 621
- gap between concentration inhibiting 50% of MV4; 11 proliferation and concentration inhibiting 50% of hERG current [1]: more than 100 fold

Compound: 5-fluoro-2-(3-{1-[(1S,3S,4R)-5-methylidene-2-azabicyclo[2.2.2]octane-3-carbonyl]piperidin-4-yl}-1H-pyrrolo[2,3-c]pyridin-1-yl)-N,N-di(propan-2-yl)benzamide [Example 5]
- IC50 (MV4; 11 cells): 35 nM
- hERG/MV4; 11 [2]: 589

Compound: (3S)—N-[(1S)-3-(1-{4-fluoro-2-[methyl(propan-2-yl)carbamoyl]phenyl}-1H-pyrrolo[2,3-c]pyridin-3-yl)cyclohexyl]-2-azabicyclo[2.2.2]octane-3-carboxamide [Example 30]
- IC50 (MV4; 11 cells): 550 nM
- hERG/MV4; 11 [2]: 13

Compound: 2-(3-{1-[(3S)-2-azabicyclo[2.2.2]octane-3-carbonyl]-1,2,3,6-tetrahydropyridin-4-yl}-1H-pyrrolo[2,3-c]pyridin-1-yl)-5-fluoro-N,N-di(propan-2-yl)benzamide [Example 3]
- IC50 (MV4; 11 cells): 36 nM
- hERG/MV4; 11 [2]: 489

Compound: 2-(3-{1-[(3S)-2-azabicyclo[2.2.2]octane-3-carbonyl]pyrrolidin-3-yl}-1H-pyrrolo[2,3-c]pyridin-1-yl)-5-fluoro-N-methyl-N-(propan-2-yl)benzamide [Example 7]
- IC50 (MV4; 11 cells): 52 nM
- hERG/MV4; 11 [2]: 775

Compound: C=C1C[C@@H]2CC[C@H]1[C@@H](C(=O)N1CCCC(c3cn(-c4ccc(F)cc4C(=O)N(C)C(C)C)c4cnccc34)CCC1)N2 [Example 16, 5-fluoro-N-methyl-2-(3-{1-[(1S,3S,4R)-5-methylidene-2-azabicyclo[2.2.2]octane-3-carbonyl]azocan-5-yl}-1H-pyrrolo[2,3-c]pyridin-1-yl)-N-(propan-2-yl)benzamide]
- IC50 (MV4; 11 cells): 240 nM

Compound: 5-fluoro-N-methyl-2-(3-{8-[(1S,3S,4R)-5-methylidene-2-azabicyclo[2.2.2]octane-3-carbonyl]-8-azabicyclo[3.2.1]octan-3-yl}-1H-pyrrolo[2,3-c]pyridin-1-yl)-N-(propan-2-yl)benzamide [Example 21]
- IC50 (MV4; 11 cells): 430 nM

Compound: 2-[3-({1-[(3S)-2-azabicyclo[2.2.2]octane-3-carbonyl]pyrrolidin-3-yl}methyl)-1H-pyrrolo[2,3-c]pyridin-1-yl]-5-fluoro-N-methyl-N-(propan-2-yl)benzamide [Example 25]
- IC50 (MV4; 11 cells): 29 nM
- hERG/MV4; 11 [2]: 334

Compound: CC(C)N(C)C(=O)c1cc(F)ccc1-n1cc(C2CCCN(C(=O)[C@H]3N[C@@H]4CC[C@H]3C4)CC2)c2ccncc21 (mixture of isomers) [Example 10, 2-(3-{1-[(1R,3S,4S)-2-azabicyclo[2.2.1]heptane-3-carbonyl]azepan-4-yl}-1H-pyrrolo[2,3-c]pyridin-1-yl)-5-fluoro-N-methyl-N-(propan-2-yl)benzamide]
- IC50 (MV4; 11 cells; Homo sapiens, MV4-11, 168 h): 89 nM
- IC50 ([1]; hERG IC50, hERG current): 55 µM

Compound: 2-[3-({1-[(3S)-2-azabicyclo[2.2.2]octane-3-carbonyl]piperidin-4-yl}methyl)-1H-pyrrolo[2,3-c]pyridin-1-yl]-5-fluoro-N-methyl-N-(propan-2-yl)benzamide [Example 27]
- IC50 (MV4; 11 cells): 780 nM
- hERG/MV4; 11 [2]: >128

Compound: 2-(3-{1-[(3S)-2-azabicyclo[2.2.2]octane-3-carbonyl]-1,2,3,6-tetrahydropyridin-4-yl}-1H-pyrrolo[2,3-c]pyridin-1-yl)-5-fluoro-N-methyl-N-(propan-2-yl)benzamide [Example 2]
- IC50 (MV4; 11 cells): 530 nM
- hERG/MV4; 11 [1]: 102
- gap between concentration inhibiting 50% of MV4; 11 proliferation and concentration inhibiting 50% of hERG current [1]: more than 100 fold
- IC50 [1, 3]: 54 µM

Compound: 2-[3-({4-[(3S)-2-azabicyclo[2.2.2]octane-3-carbonyl]-1,4-diazepan-1-yl}methyl)-1H-pyrrolo[2,3-c]pyridin-1-yl]-5-fluoro-N-methyl-N-(propan-2-yl)benzamide [Example 29]
- IC50 (MV4; 11 cells): 2900 nM
- hERG/MV4; 11 [2]: >34

Compound: CC(C)N(C(=O)c1cc(F)ccc1-n1cc(C2=CCCN(C(=O)[C@H]3NC4CCC3CC4)CCC2)c2ccncc21)C(C)C [Example 14, 2-(3-{1-[(3S)-2-azabicyclo[2.2.2]octane-3-carbonyl]-1,2,3,4,7,8-hexahydroazocin-5-yl}-1H-pyrrolo[2,3-c]pyridin-1-yl)-5-fluoro-N,N-di(propan-2-yl)benzamide]
- IC50 (MV4; 11 cells; Homo sapiens, MV4-11, 168 h): 2200 nM
- IC50 ([1]; hERG IC50, hERG current): 3.2 µM
- hERG/MV4; 11 [1]: 1.5

Compound: 2-(3-{1-[(3S)-2-azabicyclo[2.2.2]octane-3-carbonyl]piperidin-3-yl}-1H-pyrrolo[2,3-c]pyridin-1-yl)-5-fluoro-N-methyl-N-(propan-2-yl)benzamide [Example 9]
- IC50 (MV4; 11 cells): 1700 nM
- hERG/MV4; 11 [2]: 22

Compound: 2-(3-{8-[(3S)-2-azabicyclo[2.2.2]octane-3-carbonyl]-8-azabicyclo[3.2.1]octan-3-yl}-1H-pyrrolo[2,3-c]pyridin-1-yl)-5-fluoro-N-methyl-N-(propan-2-yl)benzamide [Example 20]
- IC50 (MV4; 11 cells): 85 nM
- hERG/MV4; 11 [2]: 373

Compound: 2-(3-{1-[(1S,3S,4R,6S)-6-(cyclopropylmethyl)-2-azabicyclo[2.2.2]octane-3-carbonyl]piperidin-4-yl}-1H-pyrrolo[2,3-c]pyridin-1-yl)-5-fluoro-N,N-di(propan-2-yl)benzamide [Example 6]
- IC50 (MV4; 11 cells): < 3 nM

Compound: CC(C)N(C(=O)c1cc(F)ccc1-n1cc(C2CCN(C(=O)[C@H]3NC4CCC3CC4)CC2)c2ccncc21)C(C)C [Example 1, 2-(3-{1-[(3S)-2-Azabicyclo[2.2.2]octane-3-carbonyl]piperidin-4-yl}-1H-pyrrolo[2,3-c]pyridin-1-yl)-5-fluoro-N,N-di(propan-2-yl)benzamide]
- IC50 (MV4; 11 cells; Homo sapiens, MV4-11, 168 h): 260 nM
- IC50 ([1]; hERG IC50, hERG current): 30 µM
- hERG/MV4; 11 [1]: 114
- gap between concentration inhibiting 50% of MV4; 11 proliferation and concentration inhibiting 50% of hERG current [1]: more than 100 fold

Compound: 2-[3-({4-[(3S)-2-azabicyclo[2.2.2]octane-3-carbonyl]piperazin-1-yl}methyl)-1H-pyrrolo[2,3-c]pyridin-1-yl]-5-fluoro-N-methyl-N-(propan-2-yl)benzamide [Example 28]
- IC50 (MV4; 11 cells): 3200 nM
- hERG/MV4; 11 [2]: >31

Compound: 2-[3-({1-[(3S)-2-azabicyclo[2.2.2]octane-3-carbonyl]azetidin-3-yl}methyl)-1H-pyrrolo[2,3-c]pyridin-1-yl]-5-fluoro-N-methyl-N-(propan-2-yl)benzamide [Example 26]
- IC50 (MV4; 11 cells): 1700 nM
- hERG/MV4; 11 [2]: >59

Compound: 2-(3-{1-[(3S)-2-azabicyclo[2.2.2]octane-3-carbonyl]piperidin-4-yl}-1H-pyrrolo[2,3-c]pyridin-1-yl)-5-fluoro-N-methyl-N-(propan-2-yl)benzamide [Example 4]
- IC50 (MV4; 11 cells): 73 nM
- cell proliferation inhibition activity (MV4; 11 cells; summary in words): potent cell proliferation inhibition activity
- hERG/MV4; 11 [1]: >1370
- gap between concentration inhibiting 50% of MV4; 11 proliferation and concentration inhibiting 50% of hERG current [1]: more than 100 fold
- IC50 [1, 3]: > 100 µM
- gap between concentration inhibiting 50% of RS4; 11 proliferation and concentration inhibiting 50% of hERG current ([1]; text prints RS4, 11 cells (table is MV4; 11)): more than 1000 fold

Compound: C=C1C[C@@H]2CC[C@H]1[C@@H](C(=O)N1CCCC(c3cn(-c4ccc(F)cc4C(=O)N(C(C)C)C(C)C)c4cnccc34)CCC1)N2 [Example 18, 5-fluoro-2-(3-{1-[(1S,3S,4R)-5-methylidene-2-azabicyclo[2.2.2]octane-3-carbonyl]azocan-5-yl}-1H-pyrrolo[2,3-c]pyridin-1-yl)-N,N-di(propan-2-yl)benzamide]
- IC50 (MV4; 11 cells): 730 nM

Compound: 2-(3-{1-[(3S)-2-azabicyclo[2.2.2]octane-3-carbonyl]pyrrolidin-3-yl}-1H-pyrrolo[2,3-c]pyridin-1-yl)-5-fluoro-N,N-di(propan-2-yl)benzamide [Example 8]
- IC50 (MV4; 11 cells): 24 nM
- hERG/MV4; 11 [2]: 404

Compound: CC(C)N(C(=O)c1cc(F)ccc1-n1cc(C2=CC3CCC(C2)N3C(=O)[C@H]2NC3CCC2CC3)c2ccncc21)C(C)C (single isomer, unassigned) [Example 19a]
- IC50 (MV4; 11 cells): < 30 nM
- IC50 ([1]; hERG IC50, hERG current): 6 µM
- hERG/MV4; 11 [1]: >200

Compound: 5-fluoro-2-(3-{1-[(1S,3S,4S,5S)-5-fluoro-2-azabicyclo[2.2.2]octane-3-carbonyl]azepan-4-yl}-1H-pyrrolo[2,3-c]pyridin-1-yl)-N-methyl-N-(propan-2-yl)benzamide [Example 12]
- IC50 (MV4; 11 cells): < 30 nM
- hERG/MV4; 11 [2]: >1050

Compound: CC(C)N(C(=O)c1cc(F)ccc1-n1cc(C2=CC3CCC(C2)N3C(=O)[C@H]2NC3CCC2CC3)c2ccncc21)C(C)C (single isomer, unassigned) [Example 19b]
- IC50 (MV4; 11 cells): 140 nM
- IC50 ([1]; hERG IC50, hERG current): 4.5 µM
- hERG/MV4; 11 [1]: 32

Compound: 2-(3-{2-[(1R,3S,4S)-2-azabicyclo[2.2.1]heptane-3-carbonyl]-2-azaspiro[3.4]octan-6-yl}-1H-pyrrolo[2,3-c]pyridin-1-yl)-5-fluoro-N-methyl-N-(propan-2-yl)benzamide [Example 24]
- IC50 (MV4; 11 cells): 58 nM
